Reference: patent US12122752B1, “5-(2,4,5-tris(4-chlorophenyl)-1H-imidazol-1-yl)pentanoic acid as an antimicrobial compound” (KING FAISAL UNIVERSITY, priority 2023, dated 2024)

Legend:
Type in all cases: cell-based
different microbes = assay: Antimicrobial testing, overall statement; conditions: summary in words of Tables 1 and 2
Description: (§1) The agar plate disc-diffusion method was applied. Sterilized filter papers (6 mm in diameter) were wetted with 10 μL of a solution of 5-(2,4,5-tris(4-chlorophenyl)-1H-imidazol-1-yl)pentanoic acid (V) to be tested, containing 10 mg/mL in DMSO, and the discs were allowed to air dry. The discs were then placed onto the surface of agar plates (nutrient agar for bacteria and Sabouraud's dextrose agar for fungi) seeded with the test organism. Each plate contained 15 mL of the agar medium, previously seeded with 0.2 mL of the broth culture of each organism pregrown for 18 hours. The plates were incubated at 37° C. for 48 hours, and 72 hours for fungi. The inhibition zones was measured in mm. Discs impregnated with DMSO were used as a control, and its inhibition zone was subtracted from the tested compound actual inhibition zone.
(§2) Their antibacterial screened against gram positive bacteria namely Bacillus cereus and Staphylococcus aureus and gram-negative bacterial strains namely Pseudomonas aeruginosa and Escherichia coli, while their antifungal activity screened against Aspergillus flavus and Chrysosporium keratinophilum as shown in Table 1 and 2.

Pseudomonas aeruginosa = assay: Agar plate disc-diffusion, antibacterial activity by inhibition zone; conditions: gram negative, nutrient agar, 37° C., 48 hours
Description: as §1, with “Sterilized filter papers (6 mm in diameter) were wetted with 10 μL of a solution of 5-(2,4,5-tris(4-chlorophenyl)-1H-imidazol-1-yl)pentanoic acid (V) to be tested, containing 10 mg/mL in DMSO, and the discs were allowed to air dry.” left out
as §2

Bacillus Cereus = assay: as above; conditions: gram positive, nutrient agar, 37° C., 48 hours
Description: as §1, with “Sterilized filter papers (6 mm in diameter) were wetted with 10 μL of a solution of 5-(2,4,5-tris(4-chlorophenyl)-1H-imidazol-1-yl)pentanoic acid (V) to be tested, containing 10 mg/mL in DMSO, and the discs were allowed to air dry.” left out
as §2

Escherichia coli = assay: as above; conditions: gram negative, nutrient agar, 37° C., 48 hours
Description: as §1, with “Sterilized filter papers (6 mm in diameter) were wetted with 10 μL of a solution of 5-(2,4,5-tris(4-chlorophenyl)-1H-imidazol-1-yl)pentanoic acid (V) to be tested, containing 10 mg/mL in DMSO, and the discs were allowed to air dry.” left out
as §2

Staphylococcus aureus = assay: as above; conditions: gram positive, nutrient agar, 37° C., 48 hours
Description: as §1, with “Sterilized filter papers (6 mm in diameter) were wetted with 10 μL of a solution of 5-(2,4,5-tris(4-chlorophenyl)-1H-imidazol-1-yl)pentanoic acid (V) to be tested, containing 10 mg/mL in DMSO, and the discs were allowed to air dry.” left out
as §2

Aspergillus flavus = assay: Agar plate disc-diffusion, antifungal activity by inhibition zone; conditions: Sabouraud's dextrose agar, 72 hours
Description: as §1, §2

[1] = system: Chrysosporium keratinophilum; assay: as above; conditions: Sabouraud's dextrose agar, 72 hours
Description: as §1, §2

[2] = A = concentration of comp. = 10,000 μL
[3] = B = concentration of comp. = 30,000 μL
[4] = C = concentration of comp. = 50,000 μL

| SMILES | antimicrobials activities against different microbes (different microbes) | inhibition zone (Pseudomonas aeruginosa; [2]) | inhibition zone (Pseudomonas aeruginosa; [3]) | inhibition zone (Pseudomonas aeruginosa; [4]) | inhibition zone (Bacillus Cereus; [2]) | inhibition zone (Bacillus Cereus; [3]) | inhibition zone (Bacillus Cereus; [4]) | inhibition zone (Escherichia coli; [2]) | inhibition zone (Escherichia coli; [3]) | inhibition zone (Escherichia coli; [4]) | inhibition zone (Staphylococcus aureus; [2]) | inhibition zone (Staphylococcus aureus; [3]) | inhibition zone (Staphylococcus aureus; [4]) | inhibition zone (Aspergillus flavus; [2]) | inhibition zone (Aspergillus flavus; [3]) | inhibition zone (Aspergillus flavus; [4]) | inhibition zone [1, 2] | inhibition zone [1, 3] | inhibition zone [1, 4] |
| --- | --- | --- | --- | --- | --- | --- | --- | --- | --- | --- | --- | --- | --- | --- | --- | --- | --- | --- | --- |
| O=C(O)CCCCn1c(-c2ccc(Cl)cc2)nc(-c2ccc(Cl)cc2)c1-c1ccc(Cl)cc1 [V, 5-(2,4,5-tris(4-chlorophenyl)-1H-imidazol-1-yl)pentanoic acid] | excellent | 25 mm | 30 mm | 43 mm | 23 mm | 25 mm | 37 mm | 27 mm | 35 mm | 50 mm | 18 mm | 22 mm | 33 mm | 17 mm | 22 mm | 31 mm | 25 mm | 28 mm | 46 mm |
| O=C(O)c1cn(C2CC2)c2cc(N3CCNCC3)c(F)cc2c1=O [Cip., reference compound] | – | 29 mm | 30 mm | 53 mm | 29 mm | 31 mm | 42 mm | 30 mm | 39 mm | 60 mm | 42 mm | 44 mm | 53 mm | 29 mm | 32 mm | 42 mm | 29 mm | 30 mm | 53 mm |
